This note sets out measurements from patent publication US12624018B1, “Inhibitors of RIPK2 and medical uses thereof” (Odyssey Therapeutics, Inc., priority 2022, dated 2026).

pIC50: −log10 of the molar value.

One experiment deals with human NOD2 signaling. As to the kind of experiment: Inhibition of human NOD2 signaling in HEK-Blue-hNOD2 cells (L18-MDP stimulated, SEAP reporter). The format is cell-based. The note with it: Homo sapiens, HEK-Blue hNOD2, HEK-Blue-hNOD2 cells, NOD2 ligand stimulation, SEAP reporter; read-out: hNOD2 IC50. Put shortly: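 Read-out is SEAP absorbance at 620 nm after 3 h QUANTI-Blue development of supernatant from HEK293 cells carrying NOD2 and a SEAP reporter (12500/well). Cells got compound (10 points, 3-fold dilutions) and 0.5 ng/mL L18-MDP for 24 h at 37 °C; percent inhibition vs stimulated/unstimulated controls, 4-parameter IC50.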

For experiment [1], the system named is RIPK2 activity in vivo, as measured by plasma levels of cytokine MCP-1. As to the kind of experiment: In vivo inhibition of monocyte chemoattractant protein-1 (MCP-1), acute mouse MDP challenge. The note with it: female C57BL/6 mice, plasma 2 h after MDP. The method, then: The compounds of the disclosure were tested for their ability to inhibit RTPK2 activity in vivo, as measured by plasma levels of cytokine MCP-1. C57BL/6 mice were dosed orally with the compounds of the disclosure one hour prior to intra-peritoneal administration of muramyldipeptide (MDP), a NOD2 agonist. Intraperitoneal (i.p.) injection of MDP in mice induces an increase in circulating levels of proinflammatory cytokines, such as MCP-1, in a RIPK2-dependent manner. This acute mouse MDP challenge represents a screening model to measure the ability of compounds to inhibit RIPK2 in vivo.
Materials: Female C57BL/6 mice (6-13 weeks of age) were purchased from the Jackson Laboratory. All mice were maintained under a 12 h light/dark cycle and had food and water ad libitum. Muramyldipeptide (MDP) was purchased from Invivogen (catalog No. tlrl-mdp; lot No. 6231-43-02). Mouse MCP-1 was measured using U-PLEX MSD kit (Meso Scale Discovery (MSD), catalog No. K15069M-2). Carboxymethyl cellulose was purchased from Sigma-Aldrich (catalog No. C5678-500 ml), Tween80 was purchased from Sigma-Aldrich (catalog No. P1754-500 ml), (Hydroxypropyl)-β-cyclodextrin (HP-β-CD) was purchased from Sigma-Aldrich (catalog No. C332607-500G), PBS was purchased from Thermo Fisher Scientific (catalog No. 14190250).
The vehicle was prepared by mixing carboxymethyl cellulose and Tween80 to achieve a final solution of 0.5% CMC or 20% HP-β-CD in water. The compounds of the disclosure were weighed out and mixed with the vehicle to yield final working suspensions. Working suspensions of the compounds were prepared once at the beginning of the study, and vortexed and sonicated prior to each dosing to ensure the material was in fine suspension.
Mice were acclimated to the facility for at least 5 days before the start of the study. On day 0, mice were weighed and assigned to groups in a balanced manner to achieve similar average weight across the groups at the start of the study. On day 0, hour −1 (1 hours before MDP injection), all mice were given a single p.o. dose with vehicle or a compound of the disclosure. At hour 0 (1 hour after dosing), mice were injected intraperitoneally (IP) with 8 mpk MDP in PBS. Two hours after MDP injection (3 hours after drug treatment), blood was collected via cardiac puncture for all mice into EDTA microtainer collection tubes. Plasma was prepared from blood and stored at −80° C.
MCP-1 levels in mouse plasma were measured using U-PLEX MSD kit according to manufacturer's instructions. A single analysis was performed for each sample. Concentrations were determined relative to a standard calibration curve, and total analyte levels in pg/mL.
The MCP-1 data in pg/mL were normalized in GraphPad Prism 9.2 using the normalize function and entering the 0% and 100% inhibition control groups for the study. 0% inhibition was defined as mean MCP-1 pg/mL in MDP vehicle group, and 100% inhibition was defined as mean MCP-1 pg/mL in the unstimulated vehicle group.

Setting [2] is: single p.o. dose 10 mg/kg 1 h before i.p. MDP 8 mpk.
The mark [3] stands for this setting: single p.o. dose 3 mg/kg 1 h before i.p. MDP 8 mpk.

In general, pIC50 refers to the negative decadic logarithm of the IC50, by convention in mol/L. `CC(C)(C)n1cc(NC(=O)Cc2ccc(Oc3ccnc4ccc(S(C)(=O)=O)cc34)cc2F)cn1` [Compound 38, N-(1-(tert-butyl)-1H-pyrazol-4-yl)-2-(2-fluoro-4-((6-(methylsulfonyl)quinolin-4-yl)oxy)phenyl)acetamide]: the pIC50 in the experiment on human NOD2 signaling is 8.05. The “% MCP-1 inhibition” value in experiment [1] (setting [2]) amounted to 99%.

As to `Cc1cc(CC(=O)Nc2cnn(C(C)(C)C)c2)ccc1Oc1ccnc2ccc(OC3CCNCC3)cc12` [Compound 83, N-(1-(tert-butyl)-1H-pyrazol-4-yl)-2-(3-methyl-4-((6-(piperidin-4-yloxy)quinolin-4-yl)oxy)phenyl) acetamide], the pIC50 with human NOD2 signaling is 8.23. In addition, in experiment [1] (setting [3]), the “% MCP-1 inhibition” value is “no effect”.

As to `Cc1cc(CC(=O)Nc2cnn(C(C)(C)C)c2)ccc1Oc1ccnc2ccc(S(C)(=O)=O)cc12` [Compound 86, N-(1-(tert-butyl)-1H-pyrazol-4-yl)-2-(3-methyl-4-((6-(methylsulfonyl)quinolin-4-yl)oxy)phenyl)acetamide], the pIC50 in the experiment on human NOD2 signaling was 9.15. The “% MCP-1 inhibition” value in experiment [1] (setting [3]) is listed as 101%.

For the compound `Cc1c(Oc2ccnc3ccc(S(C)(=O)=O)cc23)ccc(CC(=O)Nc2cnn(C(C)(C)C)c2)c1F` [Compound 91, N-(1-(tert-butyl)-1H-pyrazol-4-yl)-2-(2-fluoro-3-methyl-4-((6-(methylsulfonyl)quinolin-4-yl)oxy)phenyl)acetamide], the pIC50 in the experiment on human NOD2 signaling is 9.30. The “% MCP-1 inhibition” value in experiment [1] (setting [3]) is listed as 99%.

For `CCS(=O)(=O)c1ccc2nccc(Oc3ccc(CC(=O)Nc4cnn(C(C)(C)C)c4)cc3C)c2c1` [Compound 99, N-(1-(tert-butyl)-1H-pyrazol-4-yl)-2-(4-((6-(ethylsulfonyl)quinolin-4-yl)oxy)-3-methylphenyl)acetamide], in the experiment on human NOD2 signaling, the pIC50 is 9.52. Besides, the “% MCP-1 inhibition” value in experiment [1] (setting [3]) came to 111%.

`Cc1cc(CC(=O)Nc2cnn(C(C)(C)C)c2)c(F)cc1Oc1ccnc2ccc(S(C)(=O)=O)cc12` [Compound 113, N-(1-(tert-butyl)-1H-pyrazol-4-yl)-2-(2-fluoro-5-methyl-4-((6-(methylsulfonyl)quinolin-4-yl)oxy)phenyl)acetamide]: in the experiment on human NOD2 signaling, the pIC50 is 8.66. Also, in experiment [1] (setting [2]), the “% MCP-1 inhibition” value is on record as 82%.

`Cc1cc(CC(=O)Nc2cnn(C(C)(C)C)c2)c(F)cc1Oc1ccnc2ccc(C(N)=O)cc12` [Compound 359, 4-(4-(2-((1-(tert-butyl)-1H-pyrazol-4-yl)amino)-2-oxoethyl)-5-fluoro-2-methyl-phenoxy) quinoline-6-carboxamide]: the pIC50 in the experiment on human NOD2 signaling was 9.30. The “% MCP-1 inhibition” value in experiment [1] (setting [2]) was 88%.

In the case of `CNC(=O)c1ccc2nccc(Oc3cc(F)c(CC(=O)Nc4cnn(C(C)(C)C)c4)cc3C)c2c1` [Compound 360, 4-(4-(2-((1-(tert-butyl)-1H-pyrazol-4-yl)amino)-2-oxoethyl)-5-fluoro-2-methylphenoxy)-N-methylquinoline-6-carboxamide], the pIC50 in the experiment on human NOD2 signaling is 9.70. Besides, the “% MCP-1 inhibition” value in experiment [1] (setting [2]) is 93%.

Regarding `Cc1cc(CC(=O)Nc2cnn(C(C)(C)C)c2)cc(C)c1Oc1ccnc2cc(F)c(C(N)=O)cc12` [Compound 581, 4-(4-(2-((1-(tert-butyl)-1H-pyrazol-4-yl)amino)-2-oxoethyl)-2,6-dimethylphenoxy)-7-fluoroquinoline-6-carboxamide], in the experiment on human NOD2 signaling, the pIC50 was 8.92. In addition, the “% MCP-1 inhibition” value in experiment [1] (setting [3]) is 75%.
